Measurements published in US20080234262A1 (Wyeth, priority 2007, published 2008).

Legend:
breast line MDA468 = test: In vitro cell culture growth assay (MTS), MDA468; type: cell-based, human; details: Homo sapiens, 72 h, MDA468 cells, three days after drug treatment
Method: Human tumor cell lines used include prostate lines LNCap and PC3MM2, breast lines MDA468, MCF7, renal line HTB44 (A498), colon line HCT116, and ovarian line OVCAR3. Cells were plated in 96-well culture plates. One day following plating, the inhibitors were added to cells. Three days after drug treatment, viable cell densities were determined by metabolic conversion (by viable cells) of the dye MTS, a well established cell proliferation assay. The assays were performed using an assay kit purchased from Promega Corp. (Madison, Wis.) following the protocol supplied with the kit. The MTS assay results were read in a 96-well plate reader by measuring absorbance at 490 nm. The effect of each treatment was calculated as percent of control growth relative to the vehicle-treated cells grown in the same culture plate.

prostate line LNCap = test: In vitro cell culture growth assay (MTS), LNCap; type: cell-based, human; details: Homo sapiens, LNCaP, 72 h, LNCap cells, three days after drug treatment
PI3K = PI3K (Homo sapiens, UniProt P42336); test: Fluorescence polarization assay for PI3K; type: biochemical; details: PI3Kα; read-out: PI3Kα IC50;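 further: PI3K kinase reaction on PIP2 with ATP, 30-60 min, product sensed by GST-GRP with red probe in fluorescence polarization (mP), controls without enzyme and at zero time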
Chain of PI3K (P42336 whole entry): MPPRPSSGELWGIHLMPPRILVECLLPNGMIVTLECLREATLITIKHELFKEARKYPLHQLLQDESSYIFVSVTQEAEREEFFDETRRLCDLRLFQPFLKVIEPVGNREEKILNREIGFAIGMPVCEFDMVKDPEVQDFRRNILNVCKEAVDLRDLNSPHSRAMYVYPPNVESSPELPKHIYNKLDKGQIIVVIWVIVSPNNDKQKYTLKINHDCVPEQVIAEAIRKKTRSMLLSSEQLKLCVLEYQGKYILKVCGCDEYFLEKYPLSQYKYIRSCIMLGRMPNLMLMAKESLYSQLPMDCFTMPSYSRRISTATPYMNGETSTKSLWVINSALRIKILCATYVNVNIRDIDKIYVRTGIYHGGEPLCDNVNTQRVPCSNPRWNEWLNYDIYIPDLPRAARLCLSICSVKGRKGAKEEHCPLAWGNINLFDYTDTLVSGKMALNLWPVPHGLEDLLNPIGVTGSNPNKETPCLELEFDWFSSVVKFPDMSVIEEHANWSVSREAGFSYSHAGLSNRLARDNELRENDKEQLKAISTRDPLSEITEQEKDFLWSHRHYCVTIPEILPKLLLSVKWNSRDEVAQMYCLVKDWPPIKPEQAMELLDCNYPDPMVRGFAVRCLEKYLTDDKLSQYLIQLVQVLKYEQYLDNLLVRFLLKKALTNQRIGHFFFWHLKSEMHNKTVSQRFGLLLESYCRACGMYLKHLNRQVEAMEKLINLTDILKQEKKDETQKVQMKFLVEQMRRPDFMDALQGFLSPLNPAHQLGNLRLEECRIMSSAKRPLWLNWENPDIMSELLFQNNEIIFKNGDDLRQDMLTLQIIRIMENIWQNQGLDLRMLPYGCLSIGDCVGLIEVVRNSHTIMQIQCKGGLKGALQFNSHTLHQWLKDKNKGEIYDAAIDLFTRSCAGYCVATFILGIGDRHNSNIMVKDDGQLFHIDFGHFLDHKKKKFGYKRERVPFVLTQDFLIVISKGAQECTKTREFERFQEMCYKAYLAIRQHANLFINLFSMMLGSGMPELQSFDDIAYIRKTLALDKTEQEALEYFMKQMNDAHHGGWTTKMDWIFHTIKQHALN
Chain of PI3K (P27986 whole entry partner): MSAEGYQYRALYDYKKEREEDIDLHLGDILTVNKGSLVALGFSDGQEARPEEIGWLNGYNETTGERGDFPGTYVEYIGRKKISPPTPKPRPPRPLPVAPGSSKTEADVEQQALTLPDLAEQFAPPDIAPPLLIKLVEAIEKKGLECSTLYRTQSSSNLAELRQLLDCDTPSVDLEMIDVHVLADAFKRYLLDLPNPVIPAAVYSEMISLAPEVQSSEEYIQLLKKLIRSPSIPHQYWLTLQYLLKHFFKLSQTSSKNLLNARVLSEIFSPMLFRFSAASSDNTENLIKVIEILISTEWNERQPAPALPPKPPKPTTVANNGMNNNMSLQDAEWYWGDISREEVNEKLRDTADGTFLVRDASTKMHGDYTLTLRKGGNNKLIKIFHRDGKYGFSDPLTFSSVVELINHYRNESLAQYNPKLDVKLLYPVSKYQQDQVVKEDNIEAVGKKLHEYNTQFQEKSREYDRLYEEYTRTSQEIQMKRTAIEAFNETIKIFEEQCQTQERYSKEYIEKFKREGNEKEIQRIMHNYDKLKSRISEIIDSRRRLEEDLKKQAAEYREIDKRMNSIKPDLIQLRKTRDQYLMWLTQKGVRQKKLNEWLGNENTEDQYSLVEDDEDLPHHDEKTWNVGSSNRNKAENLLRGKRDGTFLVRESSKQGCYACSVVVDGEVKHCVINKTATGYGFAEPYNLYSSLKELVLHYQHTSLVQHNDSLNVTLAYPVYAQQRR

SMILES | IC50 (breast line MDA468) [nM] | IC50 (prostate line LNCap) [nM] | IC50 (PI3K) [nM]
CC(C)(C)OC(=O)N1CCC(n2ncc3c(N4CCOCC4)nc(-c4ccc(NC(=O)NC5CC5)cc4)nc32)CC1 [Compound 767, tert-butyl 4-(6-{4-[(cyclopropylcarbamoyl)amino]phenyl}-4-morpholin-4-yl-1H-pyrazolo[3,4-d]pyrimidin-1-yl)piperidine-1-carboxylate] | 700 | – | –
CC(C)OC(=O)N1CCC(n2ncc3c(N4CCOCC4)nc(-c4ccc(NC(=O)NCCF)cc4)nc32)CC1 [Compound 833, isopropyl 4-[6-(4-{[(2-fluoroethyl)carbamoyl]amino}phenyl)-4-morpholin-4-yl-1H-pyrazolo[3,4-d]pyrimidin-1-yl]piperidine-1-carboxylate] | 250 | – | –
CC(C)OC(=O)N1CCC(n2ncc3c(N4CCOCC4)nc(-c4ccc(NC(=O)NC5CC5)cc4)nc32)CC1 [Compound 835, isopropyl 4-(6-{4-[(cyclopropylcarbamoyl)amino]phenyl}-4-morpholin-4-yl-1H-pyrazolo[3,4-d]pyrimidin-1-yl)piperidine-1-carboxylate] | 320 | – | –
COC(=O)N1CCC(n2ncc3c(N4CCOCC4)nc(-c4ccc(NC(=O)Nc5ccc(N6CCN(C)CC6)cc5)cc4)nc32)CC1 [Compound 910, methyl 4-{6-[4-({[4-(4-methylpiperazin-1-yl)phenyl]carbamoyl}amino)phenyl]-4-morpholin-4-yl-1H-pyrazolo[3,4-d]pyrimidin-1-yl}piperidine-1-carboxylate] | 0.8 | – | –
COC(=O)N1CCC(n2ncc3c(N4CCOCC4)nc(-c4ccc(NC(=O)Nc5ccc(CCO)cc5)cc4)nc32)CC1 [Compound 913, methyl 4-{6-[4-({[4-(2-hydroxyethyl)phenyl]carbamoyl}amino)phenyl]-4-morpholin-4-yl-1H-pyrazolo[3,4-d]pyrimidin-1-yl}piperidine-1-carboxylate] | 1.3 | – | –
COC(=O)N1CCC(n2ncc3c(N4CCOCC4)nc(-c4ccc(NC(=O)Nc5ccc(CCN6CCCC6)cc5)cc4)nc32)CC1 [Compound 914, methyl 4-{4-morpholin-4-yl-6-[4-({[4-(2-pyrrolidin-1-ylethyl)phenyl]carbamoyl}amino)phenyl]-1H-pyrazolo[3,4-d]pyrimidin-1-yl}piperidine-1-carboxylate] | 20 | – | –
COC(=O)N1CCC(n2ncc3c(N4CCOCC4)nc(-c4ccc(NC(=O)Nc5ccc(CCN6CCN(C)CC6)cc5)cc4)nc32)CC1 [Compound 917, methyl 4-(6-{4-[({4-[2-(4-methylpiperazin-1-yl)ethyl]phenyl}carbamoyl)amino]phenyl}-4-morpholin-4-yl-1H-pyrazolo[3,4-d]pyrimidin-1-yl)piperidine-1-carboxylate] | 60 | – | –
COC(=O)N1CCC(n2ncc3c(N4CCOCC4)nc(-c4ccc(NC(=O)Nc5ccc(CCN6CCOCC6)cc5)cc4)nc32)CC1 [Compound 918, methyl 4-{4-morpholin-4-yl-6-[4-({[4-(2-morpholin-4-ylethyl)phenyl]carbamoyl}amino)phenyl]-1H-pyrazolo[3,4-d]pyrimidin-1-yl}piperidine-1-carboxylate] | 180 | – | –
O=C(Nc1ccc(-c2nc(N3CCOCC3)c3cnn(C4CCN(Cc5cccnc5)CC4)c3n2)cc1)OCCO [Compound 924, 2-hydroxyethyl (4-{4-morpholin-4-yl-1-[1-(pyridin-3-ylmethyl)piperidin-4-yl]-1H-pyrazolo[3,4-d]pyrimidin-6-yl}phenyl)carbamate] | 110 | – | –
COC(=O)Nc1ccc(-c2nc(N3CCOCC3)c3cnn(C4CCN(Cc5ccccc5)CC4)c3n2)cc1 [Example 154, methyl {4-[1-(1-benzylpiperidin-4-yl)-4-morpholin-4-yl-1H-pyrazolo[3,4-d]pyrimidin-6-yl]phenyl}carbamate] | 3000 | – | –
CNC(=O)Nc1ccc(-c2nc(N3CCOCC3)c3cnn(C4CCN(Cc5ccccc5)CC4)c3n2)cc1 [Example 206, N-{4-[1-(1-benzylpiperidin-4-yl)-4-morpholin-4-yl-1H-pyrazolo[3,4-d]pyrimidin-6-yl]phenyl}-N′-methylurea] | 100 | – | –
COC(=O)Nc1ccc(-c2nc(N3CCOCC3)c3cnn(C4CCN(Cc5cccnc5)CC4)c3n2)cc1 [Example 209, methyl (4-{4-morpholin-4-yl-1-[1-(pyridin-3-ylmethyl)piperidin-4-yl]-1H-pyrazolo[3,4-d]pyrimidin-6-yl}phenyl)carbamate] | 1500 | – | –
CCNC(=O)Nc1ccc(-c2nc(N3CCOCC3)c3cnn(C4CCN(Cc5ccccc5)CC4)c3n2)cc1 [Example 253, 1-{4-[1-(1-benzylpiperidin-4-yl)-4-morpholin-4-yl-1H-pyrazolo[3,4-d]pyrimidin-6-yl]phenyl}-3-ethylurea] | 400 | – | –
O=C(Nc1ccccc1)Nc1ccc(-c2nc(N3CCOCC3)c3cnn(C4CCN(Cc5ccccc5)CC4)c3n2)cc1 [Example 257, 1-{4-[1-(1-benzylpiperidin-4-yl)-4-morpholin-4-yl-1H-pyrazolo[3,4-d]pyrimidin-6-yl]phenyl}-3-phenylurea] | 1100 | – | –
O=C(NCCO)Nc1ccc(-c2nc(N3CCOCC3)c3cnn(C4CCN(Cc5ccccc5)CC4)c3n2)cc1 [Example 265, 1-{4-[1-(1-benzylpiperidin-4-yl)-4-morpholin-4-yl-1H-pyrazolo[3,4-d]pyrimidin-6-yl]phenyl}-3-(2-hydroxyethyl)urea] | 100 | – | –
O=C(Nc1ccc(-c2nc(N3CCOCC3)c3cnn(C4CCN(C(=O)c5cccnc5)CC4)c3n2)cc1)Nc1cccnc1 [Example 302, 1-(4-{4-morpholin-4-yl-1-[1-(pyridin-3-ylcarbonyl)piperidin-4-yl]-1H-pyrazolo[3,4-d]pyrimidin-6-yl}phenyl)-3-pyridin-3-ylurea] | – | 200 | 32
O=C(Nc1ccc(-c2nc(N3CCOCC3)c3cnn(C4CCN(Cc5ccccc5)CC4)c3n2)cc1)NC1CC1 [Example 311, 1-{4-[1-(1-benzylpiperidin-4-yl)-4-morpholin-4-yl-1H-pyrazolo[3,4-d]pyrimidin-6-yl]phenyl}-3-cyclopropylurea] | 1100 | – | –
O=C(Nc1ccc(-c2nc(N3CCOCC3)c3cnn(C4CCN(Cc5cccnc5)CC4)c3n2)cc1)Nc1cccnc1 [Example 314, 1-(4-{4-morpholin-4-yl-1-[1-(pyridin-3-ylmethyl)piperidin-4-yl]-1H-pyrazolo[3,4-d]pyrimidin-6-yl}phenyl)-3-pyridin-3-ylurea] | – | 27 | 20
O=C(NCCF)Nc1ccc(-c2nc(N3CCOCC3)c3cnn(C4CCN(Cc5cccnc5)CC4)c3n2)cc1 [Example 315, 1-(2-fluoroethyl)-3-(4-{4-morpholin-4-yl-1-[1-(pyridin-3-ylmethyl)piperidin-4-yl]-1H-pyrazolo[3,4-d]pyrimidin-6-yl}phenyl)urea] | – | 27 | 338
CCNC(=O)Nc1ccc(-c2nc(N3CCOCC3)c3cnn(C4CCN(Cc5cccnc5)CC4)c3n2)cc1 [Example 318, 1-ethyl-3-(4-{4-morpholin-4-yl-1-[1-(pyridin-3-ylmethyl)piperidin-4-yl]-1H-pyrazolo[3,4-d]pyrimidin-6-yl}phenyl)urea] | – | 27 | 187
O=C(Nc1ccc(-c2nc(N3CCOCC3)c3cnn(C4CCN(Cc5ccccc5)CC4)c3n2)cc1)Nc1ncc[nH]1 [Example 326, 1-{4-[1-(1-benzylpiperidin-4-yl)-4-morpholin-4-yl-1H-pyrazolo[3,4-d]pyrimidin-6-yl]phenyl}-3-(1H-imidazol-2-yl)urea] | 3500 | – | –
CNC(=O)Nc1ccc(-c2nc(N3CCOCC3)c3cnn(C4CCN(C(=O)c5ccccc5)CC4)c3n2)cc1 [Example 336, 1-{4-[1-(1-benzoylpiperidin-4-yl)-4-morpholin-4-yl-1H-pyrazolo[3,4-d]pyrimidin-6-yl]phenyl}-3-methylurea] | – | 27 | 70
CNC(=O)Nc1ccc(-c2nc(N3CCOCC3)c3cnn(C4CCN(C(=O)OC(C)(C)C)CC4)c3n2)cc1 [Example 337, tert-butyl 4-(6-{4-[(methylcarbamoyl)amino]phenyl}-4-morpholin-4-yl-1H-pyrazolo[3,4-d]pyrimidin-1-yl)piperidine-1-carboxylate] | 300 | – | –
O=C(Nc1ccncc1)Nc1ccc(-c2nc(N3CCOCC3)c3cnn(C4CCN(C(=O)c5cccnc5)CC4)c3n2)cc1 [Example 344, 1-(4-{4-morpholin-4-yl-1-[1-(pyridin-3-ylcarbonyl)piperidin-4-yl]-1H-pyrazolo[3,4-d]pyrimidin-6-yl}phenyl)-3-pyridin-4-ylurea] | – | 27 | 15
CNC(=O)Nc1ccc(-c2nc(N3CCOCC3)c3cnn(C4CCN(C(=O)c5ccccc5Cl)CC4)c3n2)cc1 [Example 355, 1-(4-{1-[1-(2-chlorobenzoyl)piperidin-4-yl]-4-morpholin-4-yl-1H-pyrazolo[3,4-d]pyrimidin-6-yl}phenyl)-3-methylurea] | – | 27 | 79
CNC(=O)Nc1ccc(-c2nc(N3CCOCC3)c3cnn(C4CCN(C(=O)c5cccc(C)c5)CC4)c3n2)cc1 [Example 366, 1-methyl-3-(4-{1-[1-(3-methylbenzoyl)piperidin-4-yl]-4-morpholin-4-yl-1H-pyrazolo[3,4-d]pyrimidin-6-yl}phenyl)urea] | – | 27 | 73
CNC(=O)Nc1ccc(-c2nc(N3CCOCC3)c3cnn(C4CCN(C(=O)OC)CC4)c3n2)cc1 [Example 476, methyl 4-(6-{4-[(methylcarbamoyl)amino]phenyl}-4-morpholin-4-yl-1H-pyrazolo[3,4-d]pyrimidin-1-yl)piperidine-1-carboxylate] | 100 | – | –
